For data set [1], the system named is muscle tissue, subcutaneous connective tissue, and dermis. Put plainly: Injection into skin, subcutaneous tissue and extremity skeletal muscle of normal rats, histopathology of injection foci at 24 hours. Format: in vivo. An excerpt: The individual foci of infiltration were excised, fixed in 10% formalin, embedded in paraffin, and stained and examined by standard histopathological methods.
The controls received saline alone.
Tissues were excised, fixed in 10% formalin, embedded in paraffin, and stained and examined by standard histopathological methods.

The next data set has as its system Rat prostate. Put plainly: Intraprostatic infusion in rats, histology of the prostate gland after 72 hours. Format: in vivo. The conditions noted are these: 300 µl of 1 mg/mL in PBS pH 7.4 (1.0 mg/kg), sacrificed after 72 hours, H & E histology. Here is the method: Four rats were anesthetized with ether and given NTP peptide #7 by intraprostatic infusion. The injections consisted of 300 µl of NTP peptide #7 1 mg/mL in PBS pH 7.4. (1.0 mg/kg). Controls received injections of PBS alone or no injection. Rats were painlessly sacrificed after 72 hours. Prostate glands were dissected, fixed in 10% buffered formalin for 24 hours, embedded in paraffin, sectioned, and stained with H & E. For each animal the entire prostate gland was embedded and sectioned. All stained sections were examined histologically.
Normal rats were injected in the prostate as in the above Example 2, except they were injected with NTP peptide #17. Rats were painlessly sacrificed after 72 hours and their prostate glands were examined as in Example 2.

Ends that are not written are not given here.

For the sequence “LSLPSSWDYG [NTP peptide #7, AD7c-NTP p335-343]”, the “effect on tissue at sites of injection” value in data set [1] (injected in skin, subcutaneously and in extremity skeletal muscle, in saline, at 0.1-1 mg/mL, sacrificed at 24 hours) was “produced necrosis of tissue at the injection sites”. In data set [1] (skin, subcutaneous and skeletal muscle injection, 24 hours), the “spread of necrosis beyond the site of injection” value is on record as “did not appear to spread far beyond the site of injection”. Moreover, the “effect on tissue at sites of injection (prostate)” value with Rat prostate is “necrosis of tissue at the injection sites with loss of glandular epithelium, flattening and atrophy”.
